Experimental data as given in publication PMC11396129, “Oxindole–benzothiazole hybrids as CDK2 inhibitors and anticancer agents: design, synthesis and biological evaluation” (BMC Chemistry, 2024).

What was measured:
CCRF-CEM = experiment: NCI 60 panel growth inhibition (SRB), leukemia; assay type: cell-based, human; conditions: 10 μM
Procedure: (§1) Screening of cytotoxic activity against a panel of sixty human tumor cell lines The selected compounds by NCI were evaluated for their anticancer activity in a two- stage process. […] Then, the output from the single dose screen is reported as a mean graph. […] Assay protocol. […] For a typical screening experiment, cells are inoculated into 96 well microtiter plates in 100 µL at plating densities ranging from 5000 to 40,000 cells/well depending on the doubling time of individual cell lines. […] After 24 h, two plates of each cell line are fixed in situ with TCA, to represent a measurement of the cell population for each cell line at the time of drug addition (Tz). The experimental drugs are solubilized in dimethyl sulfoxide at 400-fold the desired final maximum test concentration and stored frozen prior to use. At the time of drug addition, an aliquot of frozen concentrate is thawed and diluted to twice the desired final maximum test concentration with complete medium containing 50 µg/mL gentamicin. Additional four, 10-fold or ½ log serial dilutions are made to provide a total of five drug concentrations plus control. […] For adherent cells, the assay is terminated by the addition of cold TCA. […] The supernatant is discarded, and the plates are washed five times with tap water and air dried. […] Using the seven absorbance measurements [time zero, (Tz), control growth, (C), and test growth in the presence of drug at the five concentration levels (Ti)], the percentage growth is calculated at each of the drug concentrations levels. Percentage growth inhibition is calculated as: [(Ti Tz)/(C–Tz)] x 100 for concentrations for which Ti>/=Tz and [(Ti-Tz)/Tz] x 100 for concentrations for which Ti < Tz. Three dose response parameters are calculated for each experimental agent. […] The drug concentration resulting in total growth inhibition (TGI) is calculated from Ti = Tz. […] Values are calculated for each of these three parameters if the level of activity is reached; however, if the effect is not reached or is exceeded, the value for that parameter is expressed as greater or less than the maximum or minimum concentration tested.

HL-60(TB) = experiment: NCI 60 panel growth inhibition (SRB), leukemia; assay type: cell-based, human; conditions: HL-60(TB), 10 μM
Procedure: as §1

K-562 = experiment: NCI 60 panel growth inhibition (SRB), leukemia; assay type: cell-based, human; conditions: K-562, 10 μM
Procedure: as §1

MOLT-4 = experiment: NCI 60 panel growth inhibition (SRB), leukemia; assay type: cell-based, human; conditions: MOLT-4, 10 μM
Procedure: as §1

RPMI-8226 = experiment: NCI 60 panel growth inhibition (SRB), leukemia; assay type: cell-based, human; conditions: RPMI-8226, 10 μM
Procedure: as §1

SR = experiment: NCI 60 panel growth inhibition (SRB), leukemia; assay type: cell-based, human; conditions: 10 μM
Procedure: as §1

COLO 205 = experiment: NCI 60 panel growth inhibition (SRB), colon cancer; assay type: cell-based, human; conditions: COLO 205, 10 μM
How it was run: (§2)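 Two-stage NCI process: single-dose screen, then five-concentration testing of selected compounds. Growth relative to time-zero and untreated controls was derived from SRB absorbance, and TGI from the concentration giving Ti = Tz.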

HCT-15 = experiment: NCI 60 panel growth inhibition (SRB), colon cancer; assay type: cell-based, human; conditions: HCT-15, 10 μM
How it was run: as §2

LOX IMVI = experiment: NCI 60 panel growth inhibition (SRB), melanoma; assay type: cell-based, human; conditions: 10 μM
Procedure: as §1

M14 = experiment: NCI 60 panel growth inhibition (SRB), melanoma; assay type: cell-based, human; conditions: M14, 10 μM
Procedure: as §1

MALME-3M = experiment: NCI 60 panel growth inhibition (SRB), melanoma; assay type: cell-based, human; conditions: 10 μM
Procedure: as §1

MDA-MB-435 = experiment: NCI 60 panel growth inhibition (SRB), melanoma; assay type: cell-based, human; conditions: MDA-MB-435, 10 μM
Procedure: as §1

SK-MEL-28 = experiment: NCI 60 panel growth inhibition (SRB), melanoma; assay type: cell-based, human; conditions: SK-MEL-28, 10 μM
Procedure: as §1

SK-MEL-5 = experiment: NCI 60 panel growth inhibition (SRB), melanoma; assay type: cell-based, human; conditions: SK-MEL-5, 10 μM
Procedure: as §1

UACC-257 = experiment: NCI 60 panel growth inhibition (SRB), melanoma; assay type: cell-based, human; conditions: UACC-257, 10 μM
Procedure: as §1

UACC-62 = experiment: NCI 60 panel growth inhibition (SRB), melanoma; assay type: cell-based, human; conditions: UACC-62, 10 μM
Procedure: as §1

786-0 = experiment: NCI 60 panel growth inhibition (SRB), renal cancer; assay type: cell-based, human; conditions: 786-0, 10 μM
Procedure: as §1

A498 = experiment: NCI 60 panel growth inhibition (SRB), renal cancer; assay type: cell-based, human; conditions: A498, 10 μM
Procedure: as §1

ACHN = experiment: NCI 60 panel growth inhibition (SRB), renal cancer; assay type: cell-based, human; conditions: 10 μM
Procedure: as §1

CAKI-1 = experiment: NCI 60 panel growth inhibition (SRB), renal cancer; assay type: cell-based, human; conditions: CAKI-1, 10 μM
Procedure: as §1

RXF 393 = experiment: NCI 60 panel growth inhibition (SRB), renal cancer; assay type: cell-based, human; conditions: RXF 393, 10 μM
Procedure: as §1

SN12C = experiment: NCI 60 panel growth inhibition (SRB), renal cancer; assay type: cell-based, human; conditions: 10 μM
Procedure: as §1

TK-10 = experiment: NCI 60 panel growth inhibition (SRB), renal cancer; assay type: cell-based, human; conditions: TK-10, 10 μM
Procedure: as §1

UO-31 = experiment: NCI 60 panel growth inhibition (SRB), renal cancer; assay type: cell-based, human; conditions: UO-31, 10 μM
Procedure: as §1

DU-145 = experiment: NCI 60 panel growth inhibition (SRB), prostate cancer; assay type: cell-based, human; conditions: DU-145, 10 μM
Procedure: as §1

PC-3 = experiment: as above; assay type: cell-based, human; conditions: PC-3, 10 μM
Procedure: as §1

CDK2 = target: T1, CDK2 (Homo sapiens, UniProt P24941); experiment: CDK2 kinase assay (BPS kit, Kinase-Glo Max); assay type: biochemical; conditions: mean of two independent experiments ± SD
T1 construct: purchased BPS Biosciences 79599

HT29 = experiment: NCI 60 panel growth inhibition (SRB), colon cancer; assay type: cell-based, human; conditions: HT29, 10 μM
How it was run: as §2

SK-MEL-2 = experiment: NCI 60 panel growth inhibition (SRB), melanoma; assay type: cell-based, human; conditions: SK-MEL-2, 10 μM
Procedure: as §1

Compound	GI% (CCRF-CEM)	GI% (HL-60(TB))	GI% (K-562)	GI% (MOLT-4)	GI% (RPMI-8226)	GI% (COLO 205)	GI% (HCT-15)	GI% (LOX IMVI)	GI% (M14)	GI% (MALME-3M)	GI% (MDA-MB-435)	GI% (SK-MEL-28)	GI% (SK-MEL-5) [%]	GI% (UACC-257)	GI% (UACC-62) [%]	GI% (786-0)	GI% (A498)	GI% (ACHN) [%]	GI% (CAKI-1) [%]	GI% (SN12C) [%]	other results
Cc1ccc2c(c1)C(=NNC(=O)COc1ccccc1-c1nc3ccccc3s1)C(=O)N2 [Compound 9b, 2-(2-(Benzo[d]thiazol-2-yl)phenoxy)-N′-(5-methyl-2-oxoindolin-3-ylidene)acetohydrazide]	23.64%	8.38%	20.57%	29.12%	30.53%	– (GI% < 5%)	31.29%	84.01%	11.64%	57.82%	17.86%	– (GI% < 5%)	62.70	– (GI% < 5%)	33.71	57.65%	5.48%	52.92	41.90	61.93	GI% (SR): 18.71%; GI% (RXF 393): 134.59%; GI% (TK-10): 93.55%; GI% (UO-31): 27.53%; GI% (DU-145): 22.75%; GI% (PC-3): 22.82%; IC50 (CDK2): 0.7 ± 0.013 µM
O=C(COc1ccccc1-c1nc2ccccc2s1)NN=C1C(=O)Nc2ccc(Cl)cc21 [Compound 9e, 2-(2-(Benzo[d]thiazol-2-yl)phenoxy)-N′-(5-chloro-2-oxoindolin-3-ylidene)acetohydrazide]	–^a (GI% < 5%)	– (GI% < 5%)	– (GI% < 5%)	– (GI% < 5%)	– (GI% < 5%)	– (GI% < 5%)	– (GI% < 5%)	8.86%	– (GI% < 5%)	– (GI% < 5%)	– (GI% < 5%)	– (GI% < 5%)	5.89	– (GI% < 5%)	10.86	– (GI% < 5%)	– (GI% < 5%)	18.45	6.21	8.28	GI% (SR): 6.46%; GI% (HT29): – (GI% < 5%); GI% (SK-MEL-2): – (GI% < 5%); GI% (RXF 393): – (GI% < 5%); GI% (TK-10): – (GI% < 5%); GI% (UO-31): – (GI% < 5%); GI% (DU-145): – (GI% < 5%)
O=C(COc1ccccc1-c1nc2ccccc2s1)NN=C1C(=O)Nc2ccc(Br)cc21 [Compound 9f, 2-(2-(Benzo[d]thiazol-2-yl)phenoxy)-N′-(5-bromo-2-oxoindolin-3-ylidene)acetohydrazide]	21.91%	29.39%	22.52%	36.74%	29.01%	– (GI% < 5%)	17.46%	59.05%	8.00%	55.98%	14.63%	– (GI% < 5%)	43.95	13.04%	25.55	101.23%	12.61%	64.71	51.85	67.11	GI% (SR): 43.03%; GI% (HT29): – (GI% < 5%); GI% (RXF 393): 82.91%; GI% (TK-10): 55.14%; GI% (UO-31): 21.89%; GI% (DU-145): 14.27%; GI% (PC-3): 27.83%; IC50 (CDK2): 0.2 ± 0.035 µM
COc1cccc(-c2nc3ccccc3s2)c1OCC(=O)NN=C1C(=O)Nc2ccc(Br)cc21 [Compound 9l, 2-(2-(Benzo[d]thiazol-2-yl)-6-methoxyphenoxy)-N′-(5-bromo-2-oxoindolin-3-ylidene)acetohydrazide]	15.16%	– (GI% < 5%)	18.70%	36.40%	25.41%	– (GI% < 5%)	21.00%	19.74%	– (GI% < 5%)	6.30%	5.27%	– (GI% < 5%)	19.70	– (GI% < 5%)	35.62	16.93%	– (GI% < 5%)	22.74	40.19	16.14	GI% (SR): 16.68%; GI% (HT29): 9.08%; GI% (SK-MEL-2): 9.60%; GI% (RXF 393): 14.21%; GI% (TK-10): – (GI% < 5%); GI% (UO-31): 30.14%; GI% (DU-145): – (GI% < 5%)
COc1ccc(-c2nc3ccccc3s2)cc1OCC(=O)NN=C1C(=O)Nc2ccc(C)cc21 [Compound 9n, 2-(5-(Benzo[d]thiazol-2-yl)-2-methoxyphenoxy)-N′-(5-methyl-2-oxoindolin-3-ylidene)acetohydrazide]	16.11%	– (GI% < 5%)	6.70%	13.07%	14.26%	– (GI% < 5%)	9.62%	– (GI% < 5%)	– (GI% < 5%)	18.46%	– (GI% < 5%)	6.91%	7.31	– (GI% < 5%)	13.88	44.99%	– (GI% < 5%)	8.57	12.63	5.76	GI% (HT29): – (GI% < 5%); GI% (SK-MEL-2): – (GI% < 5%); GI% (TK-10): – (GI% < 5%); GI% (UO-31): – (GI% < 5%); GI% (DU-145): 7.08%; GI% (PC-3): – (GI% < 5%)
